Like-named read-outs stand apart in the source and are kept apart here.
What was measured:
[1] = target: T1, recombinant human Lp-PLA2 (Homo sapiens, UniProt Q13093); assay: Recombinant human Lp-PLA2 assay (rhLp-PLA2, PED6 assay); format: biochemical
T1 sequence (Q13093 22-441): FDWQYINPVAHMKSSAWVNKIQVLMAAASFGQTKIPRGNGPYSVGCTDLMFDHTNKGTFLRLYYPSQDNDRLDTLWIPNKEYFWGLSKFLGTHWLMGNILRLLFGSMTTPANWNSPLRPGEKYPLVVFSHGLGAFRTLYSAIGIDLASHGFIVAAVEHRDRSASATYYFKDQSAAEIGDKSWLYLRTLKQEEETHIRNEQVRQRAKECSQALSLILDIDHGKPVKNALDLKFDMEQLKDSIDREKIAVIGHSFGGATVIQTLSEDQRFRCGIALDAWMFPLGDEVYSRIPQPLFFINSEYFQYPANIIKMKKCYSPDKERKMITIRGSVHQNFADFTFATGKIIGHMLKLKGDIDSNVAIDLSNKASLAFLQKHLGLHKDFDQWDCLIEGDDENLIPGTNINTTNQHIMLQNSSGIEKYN
How it was run: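 Enzyme (4 nM or 110 pM, as stated for the 5 μL addition) preincubated 30 min with compound in 50 mM HEPES pH 7.4, 150 mM NaCl, 1 mM CHAPS, then PED6 substrate (4 or 5 μM in the addition) added. Fluorescence (ex 480/em 540) read after 20 min, room temperature; pIC50 from curve fitting.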

Lp-PLA2 in human plasma = target: T2, Lp-PLA2 in human plasma (Homo sapiens, UniProt Q13093); assay: Lp-PLA2 human plasma assay (Thio-PAF assay); format: biochemical; conditions: pooled human plasma; read-out: pIC50 values in the thio-PAF assay (converted)
T2 construct: from tissue; host or cells: pooled human plasma
T2 sequence (Q13093 22-441): T1 sequence (Q13093 22-441)
How it was run: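 Pooled human plasma preincubated 30 min with compound, then 2-thio-PAF substrate added with CPM and NEM in 50 mM HEPES pH 7.4, 150 mM NaCl, 1 mM CHAPS. Quenched with TFA after 2 min, incubated 40 min at room temperature, and read by fluorescence at ex 380/em 485 nm. Values given as pIC50.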

[2] = read-out: pIC50 values in the recombinant human Lp-PLA2 assay (converted)
[3] = read-out: rhLp-PLA2 (PED6 assay) (pIC50) (converted)

Structure (SMILES)	IC50 [1, 2] [nM]	IC50 [1, 3] [nM]	IC50 (Lp-PLA2 in human plasma) [nM]
CC1CCn2c(cc(OCc3cc(F)c(F)c(F)c3)nc2=O)N1C (stereo not drawn) [E8, 1,2-dimethyl-8-((3,4,5-trifluorobenzyl)oxy)-3,4-dihydro-1H-pyrimido[1,6-a]pyrimidin-6(2H)-one]	≤ 1	0.398	≤ 100
CC1CCn2c(cc(OCc3ccc(Oc4ccc(C(F)(F)F)cc4)c(C#N)c3)nc2=O)N1 (stereo not drawn) [E2, 5-(((2-methyl-6-oxo-2,3,4,6-tetrahydro-1H-pyrimido[1,6-a]pyrimidin-8-yl)oxy)methyl)-2-(4-(trifluoromethyl)phenoxy)benzonitrile]	≤ 1	0.126	≤ 100
C[C@H]1CCn2c(cc(OCc3ccc(Oc4cccc(F)c4)c(C#N)c3)nc2=O)N1C [E92, (S)-5-(((1,2-dimethyl-6-oxo-2,3,4,6-tetrahydro-1H-pyrimido[1,6-a]pyrimidin-8-yl)oxy)methyl)-2-(3-fluorophenoxy)benzonitrile]	≤ 1	–	≤ 10
CC(C)N1c2cc(OCc3cc(F)c(F)c(F)c3)nc(=O)n2CC[C@@H]1C [E140, (S)-1-isopropyl-2-methyl-8-((3,4,5-trifluorobenzyl)oxy)-3,4-dihydro-1H-pyrimido[1,6-a]pyrimidin-6(2H)-one]	≤ 1	–	≤ 100
CN1c2cc(OCc3ccc(Oc4cccc(F)c4)c(C#N)c3)nc(=O)n2CCC1(C)C [E117, 2-(3-fluorophenoxy)-5-(((1,2,2-trimethyl-6-oxo-2,3,4,6-tetrahydro-1H-pyrimido[1,6-a]pyrimidin-8-yl)oxy)methyl)benzonitrile]	≤ 1	–	≤ 100
C[C@@H]1CCn2c(cc(OCc3ccc(Oc4ccc(C(F)(F)F)nc4)c(C#N)c3)nc2=O)N1C [E115, (R)-5-(((1,2-dimethyl-6-oxo-2,3,4,6-tetrahydro-1H-pyrimido[1,6-a]pyrimidin-8-yl)oxy)methyl)-2-((6-(trifluoromethyl)pyridin-3-yl)oxy)benzonitrile]	≤ 1	–	≤ 10
C[C@H]1CCn2c(cc(OCc3ccc(Oc4ccc(F)c(C(F)(F)F)c4)cc3)nc2=O)N1C [E84, (S)-8-((4-(4-fluoro-3-(trifluoromethyl)phenoxy)benzyl)oxy)-1,2-dimethyl-3,4-dihydro-1H-pyrimido[1,6-a]pyrimidin-6(2H)-one]	≤ 1	–	≤ 10
C[C@H]1CCn2c(cc(OCc3cc(F)c(Oc4ccc(F)cc4)c(F)c3)nc2=O)N1C [E94, (S)-8-((3,5-difluoro-4-(4-fluorophenoxy)benzyl)oxy)-1,2-dimethyl-3,4-dihydro-1H-pyrimido[1,6-a]pyrimidin-6(2H)-one]	≤ 1	–	≤ 100
C[C@@H]1CCn2c(cc(OCc3cc(F)c(Oc4cccc(C(F)(F)F)c4)c(F)c3)nc2=O)N1C [E77, (R)-8-((3,5-difluoro-4-(3-(trifluoromethyl)phenoxy)benzyl)oxy)-1,2-dimethyl-3,4-dihydro-1H-pyrimido[1,6-a]pyrimidin-6(2H)-one]	≤ 1	–	≤ 10
CN1c2cc(OCc3ccc(Oc4ccc(F)cc4)c(C#N)c3)nc(=O)n2CCC1(C)C [E118, 2-(4-fluorophenoxy)-5-(((1,2,2-trimethyl-6-oxo-2,3,4,6-tetrahydro-1H-pyrimido[1,6-a]pyrimidin-8-yl)oxy)methyl)benzonitrile]	≤ 1	–	≤ 100
C[C@@H]1CCn2c(cc(OCc3cc(F)c(F)c(F)c3)nc2=O)N1 [E29, (R)-2-methyl-8-((3,4,5-trifluorobenzyl)oxy)-3,4-dihydro-1H-pyrimido[1,6-a]pyrimidin-6(2H)-one]	–	1.26	≤ 100
CN1c2cc(OCc3cc(F)c(Oc4ccc(C(F)(F)F)nc4)c(F)c3)nc(=O)n2CCC1(C)C [E88, 8-((3,5-difluoro-4-((6-(trifluoromethyl)pyridin-3-yl)oxy)benzyl)oxy)-1,2,2-trimethyl-3,4-dihydro-1H-pyrimido[1,6-a]pyrimidin-6(2H)-one]	≤ 1	–	≤ 100
C[C@@H]1CCn2c(cc(OCc3ccc(Oc4cccc(F)c4)c(C#N)c3)nc2=O)N1C [E102, (R)-5-(((1,2-dimethyl-6-oxo-2,3,4,6-tetrahydro-1H-pyrimido[1,6-a]pyrimidin-8-yl)oxy)methyl)-2-(3-fluorophenoxy)benzonitrile]	≤ 1	–	≤ 10
C[C@@H]1CCn2c(cc(OCc3ccc(Oc4ccc(F)c(F)c4)c(F)c3)nc2=O)N1C [E80, (R)-8-((4-(3,4-difluorophenoxy)-3-fluorobenzyl)oxy)-1,2-dimethyl-3,4-dihydro-1H-pyrimido[1,6-a]pyrimidin-6(2H)-one]	≤ 1	–	≤ 100
C[C@H]1CCn2c(cc(OCc3ccc(Oc4cccc(C(F)(F)F)c4)c(F)c3)nc2=O)N1C [E91, (S)-8-((3-fluoro-4-(3-(trifluoromethyl)phenoxy)benzyl)oxy)-1,2-dimethyl-3,4-dihydro-1H-pyrimido[1,6-a]pyrimidin-6(2H)-one]	≤ 1	–	≤ 10
CN1c2cc(OCc3cc(F)c(Oc4ccnc(C(F)(F)F)c4)c(F)c3)nc(=O)n2CCC1(C)C [E153]	≤ 1	–	≤ 10
CC1CCn2c(cc(OCc3ccc(F)c(F)c3)nc2=O)N1C (stereo not drawn) [E7, 8-((3,4-difluorobenzyl)oxy)-1,2-dimethyl-3,4-dihydro-1H-pyrimido[1,6-a]pyrimidin-6(2H)-one]	≤ 1	–	≤ 100
C[C@@H]1CCn2c(cc(OCc3ccc(Oc4ccc(Cl)c(C(F)(F)F)c4)c(F)c3)nc2=O)N1C [E143]	≤ 1	–	≤ 10
C[C@H]1CCn2c(cc(OCc3ccc(Oc4cccc(C(F)(F)F)c4)c(C#N)c3)nc2=O)N1C [E98, (S)-5-(((1,2-dimethyl-6-oxo-2,3,4,6-tetrahydro-1H-pyrimido[1,6-a]pyrimidin-8-yl)oxy)methyl)-2-(3-(trifluoromethyl)phenoxy)benzonitrile]	≤ 1	–	≤ 10
C[C@H]1CCn2c(cc(OCc3cc(F)c(Oc4cncc(C(F)(F)F)c4)c(F)c3)nc2=O)N1C [E150, (S)-8-((3,5-difluoro-4-((5-(trifluoromethyl)pyridin-3-yl)oxy)benzyl)oxy)-1,2-dimethyl-3,4-dihydro-1H-pyrimido[1,6-a]pyrimidin-6(2H)-one]	≤ 1	–	≤ 10
CN1c2cc(OCc3ccc(Oc4ccc(F)c(C(F)(F)F)c4)c(C#N)c3)nc(=O)n2CCC1(C)C [E116, 2-(4-fluoro-3-(trifluoromethyl)phenoxy)-5-(((1,2,2-trimethyl-6-oxo-2,3,4,6-tetrahydro-1H-pyrimido[1,6-a]pyrimidin-8-yl)oxy)methyl)benzonitrile]	≤ 1	–	≤ 10
C[C@H]1CCn2c(cc(OCc3cc(F)c(Oc4ccc(C(F)(F)F)nc4)c(F)c3)nc2=O)N1C [E46, (S)-8-((3,5-difluoro-4-((6-(trifluoromethyl)pyridin-3-yl)oxy)benzyl)oxy)-1,2-dimethyl-3,4-dihydro-1H-pyrimido[1,6-a]pyrimidin-6(2H)-one]	≤ 1	0.126	≤ 10
C[C@@H]1CCn2c(cc(OCc3ccc(Oc4ccc(Cl)c(F)c4)c(C#N)c3)nc2=O)N1C [E76, (R)-2-(4-chloro-3-fluorophenoxy)-5-(((1,2-dimethyl-6-oxo-2,3,4,6-tetrahydro-1H-pyrimido[1,6-a]pyrimidin-8-yl)oxy)methyl)benzonitrile]	≤ 1	–	≤ 100
C[C@@H]1CCn2c(cc(OCc3cc(F)c(Oc4cncc(C(F)(F)F)c4)c(F)c3)nc2=O)N1C [E148, (R)-8-((3,5-difluoro-4-((5-(trifluoromethyl)pyridin-3-yl)oxy)benzyl)oxy)-1,2-dimethyl-3,4-dihydro-1H-pyrimido[1,6-a]pyrimidin-6(2H)-one]	≤ 1	–	≤ 10
CN1c2cc(OCc3ccc(Oc4ccc(C(F)(F)F)nc4)c(C#N)c3)nc(=O)n2CCC1(C)C [E112, 2-((6-(trifluoromethyl)pyridin-3-yl)oxy)-5-(((1,2,2-trimethyl-6-oxo-2,3,4,6-tetrahydro-1H-pyrimido[1,6-a]pyrimidin-8-yl)oxy)methyl)benzonitrile]	≤ 1	–	≤ 10
C[C@@H]1CCn2c(cc(OCc3ccc(Oc4ccc(C(F)(F)F)c(F)c4)cc3)nc2=O)N1C [E108, (R)-8-((4-(3-fluoro-4-(trifluoromethyl)phenoxy)benzyl)oxy)-1,2-dimethyl-3,4-dihydro-1H-pyrimido[1,6-a]pyrimidin-6(2H)-one]	≤ 1	–	≤ 100
C[C@@H]1CCn2c(cc(OCc3ccc(Oc4cccc(C(F)(F)F)c4)c(C#N)c3)nc2=O)N1C [E123, (R)-5-(((1,2-dimethyl-6-oxo-2,3,4,6-tetrahydro-1H-pyrimido[1,6-a]pyrimidin-8-yl)oxy)methyl)-2-(3-(trifluoromethyl)phenoxy)benzonitrile]	≤ 1	–	≤ 10

From patent US20150344485A1, “BICYCLIC PYRIMIDONE COMPOUNDS AS INHIBITORS OF LP-PLA2” (GLAXOSMITHKLINE INTELLECTUAL PROPERTY DEVELOPMENT LIMITED, priority 2013, published 2015)
